Measured values taken from patent US20110230553A1, “CRYSTALLIZED FORM OF DRONEDARONE BASE” (SANOFI-AVENTIS, priority 2010, published 2011).
“Also recorded” adds a separate entry of the source.

How the values were obtained:
Assay type in all cases: physicochemical
[1] = Stability study in climatic chamber: crystalline form and phase change by XRPD
Procedure: (§1) The stabilities of two crystalline forms of dronedarone base, namely form B according to the instant invention and form A described above, are studied in a climatic chamber (reference : Firlabo SP_BVEHF) at 50° C., with or without 80% relative humidity (RH). The duration time of the stability study is set up at 1 month. Samples are monitored in terms of appearance by microscope observation, chemical degradation by HPLC, crystalline form and phase change by XRPD (X-Ray Powder Diffraction, reference : Bruker D5000) and thermal behavior by DSC and TGA (references : TA Instrument Q100/Q1000 for DSC analyses and 050/Q500 for TGA analyses). HPLC is performed with a Waters 2487 apparatus, using as mobile phase a gradient of acetonitrile and pH 4.0 phosphate buffer (30/70 to 70/30, V/V, gradient).

[2] = Stability study in climatic chamber: thermal behavior by DSC and TGA
Procedure: as §1

[3] = Thermodynamic stability of the crystalline phases (DSC, X-ray at various temperatures); settings: at and around room temperature / upon heating
Procedure: X-ray diffractograms registered at various temperatures from room temperature to 100° C., at intervals of 10° C., have confirmed the solid-solid transition from form A to form C. A first crystalline solid phase, designated as form A, exists from room temperature to […] Two crystalline forms are thus observed : form A from room temperature to about 50° C., and form C appearing above 50° C. and melting between 60 and 70° C.
All DSC measurements are performed with a Mettler DSC822e (module DSC822e/700/109/414935/0025). If not indicated differently, 40 μL Al-crucibles with sealed lid and hole are used. All measurements are carried out in a nitrogen gas flow of 50 mL/min and chosen heating rate was 10° C./min., with a heating from 25° C. to at least 150° C.
In comparison, the crystallized form C of dronedarone base presents a melting point at about 69° C. On heating with a rate of 10° C./min, form A transforms to form C at about 54° C.; on further heating, form C melts at about 65° C. (onset temperature of the second endothermic event). After formation of form C, if the heating is stopped below form C melting point and the medium is then cooled back to room temperature, form C typically transforms back to form A between 50 and 45° C.

[4] = Stability study in climatic chamber: appearance; settings: after 15 and 30 days at 50° C./80% RH
Procedure: as §1

[5] = Dynamic Vapor Sorption (DVS) moisture sorption/desorption isotherms; settings: 25° C., relative humidity 0 to 95% and back, two cycles
Procedure: Moisture sorption/desorption isotherms are recorded on a DVS-1 from Surface Measurement Systems. Two cycles are run at 25° C., in which the relative humidity is stepped from 0 to 95% and back to 0%. The complete measurement time for both cycles is about 35 h. The data is evaluated using the software DVSWin V. 2.15.
The DVS isotherms of the crystallized form B of dronedarone base are represented on FIG. 5, wherein the change in dry mass (expressed in percentages) is plotted against the target relative humidity (RH, expressed in percentages). On FIG. 5, <<Sorp>> and <<Desorp>> respectively designate the humidity sorption and desorption of each cycle.

[6] = Stability study in climatic chamber: chemical degradation by HPLC; settings: 50° C. with or without 80% RH, up to 30 days
Procedure: as §1
The results in terms of chemical degradation are presented in table 8, which summarizes the content in degradation product measured in the samples. The results in table 8 represent percentages in impurities (impurities appearing after the storage for 15 to 30 days, i.e. total impurities after storage minus impurities already present at t=0).
The percentages correspond to the area under the peaks detected in chromatography.

Compound | crystalline form change by XRPD ([1]; after 15 days at 50° C./80% RH) | change in the DSC spectrum after storage ([2]; stored at 50° C./80% RH) | thermodynamic stability of the solid form [3] | appearance after storage (visual) [4] | crystalline form change by XRPD ([1]; all tested conditions, up to 30 days) | stability in terms of crystalline phase ([1]; storage at 50° C. with or without 80% RH) | change in the DSC spectrum after storage ([2]; whatever the storage conditions) | hygroscopicity [5] | chemical stability compared under the same storage conditions [6]
CCCCc1oc2ccc(NS(C)(=O)=O)cc2c1C(=O)c1ccc(OCCCN(CCCC)CCCC)cc1 [Form A, 2-n-butyl-3-[4-(3-di-n-butylaminopropoxy)benzoyl]-5-methylsulfonamido-benzofuran] | appearance of some peaks of form B | additional endothermic peak | transforms to form C upon heating | yellow coloration; also recorded: agglomeration of the powder | – | – | – | – | –
CCCCc1oc2ccc(NS(C)(=O)=O)cc2c1C(=O)c1ccc(OCCCN(CCCC)CCCC)cc1 [Form B, 2-n-butyl-3-[4-(3-di-n-butylaminopropoxy)benzoyl]-5-methylsulfonamido-benzofuran] | – | – | thermodynamically most stable one | no change is detected | no change is detected | more stable than form A | No change | low | more stable than form A
CCCCc1oc2ccc(NS(C)(=O)=O)cc2c1C(=O)c1ccc(OCCCN(CCCC)CCCC)cc1 [Form C, 2-n-butyl-3-[4-(3-di-n-butylaminopropoxy)benzoyl]-5-methylsulfonamido-benzofuran] | – | – | unstable at room temperature | – | – | – | – | – | –
